Laboratory results: patent US10499642B2, “Isoxazoline-substituted benzamides and analogues as insecticides” (SYNGENTA PARTICIPATIONS AG, priority 2015, dated 2019)
Read-outs that look alike come from different tables or passages of the source.

Assays:
Format in all cases: in vivo
Spodoptera littoralis = Spodoptera littoralis (Egyptian cotton leaf worm) cotton leaf disc test; details: foliar, 72 h, read-out: control (at least one of mortality, anti-feedant effect, and growth inhibition)
In short: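 Cotton leaf discs on agar were sprayed with aqueous dilutions of 10′000 ppm DMSO stocks, dried and infested with five L1 larvae. Mortality, anti-feedant effect and growth inhibition were scored against untreated samples 3 days after infestation. Control = any of these higher than untreated.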

Plutella xylostella = Plutella xylostella (diamond back moth) artificial diet test; details: 120 h, read-out: effect in at least one of the two categories (mortality or growth inhibition)
In short: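 Artificial diet treated with aqueous compound solutions made from DMSO stocks, dried, then infested with L2 larvae (10 to 15 per well). Mortality and growth inhibition scored versus untreated controls 5 days after infestation. Application rate 200 ppm.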

Diabrotica Balteata = assay: Diabrotica balteata (corn root worm) maize sprout test; details: 96 h, read-out: effect in at least one of the two categories (mortality or growth inhibition)
In short: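 Maize sprouts on agar were sprayed with aqueous test solutions made from 10′000 ppm DMSO stocks, dried, then infested with 6 to 10 L2 larvae per well. Mortality and growth inhibition versus untreated samples were assessed 4 days after infestation; application rate 200 ppm.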

Thrips tabaci = Thrips tabaci (onion thrips) sunflower leaf disc test; details: foliar, 144 h
Experimental: Thrips tabaci (Onion Thrips):
Sunflower leaf discs were placed on agar in 24-well microtiter plates and sprayed with aqueous test solutions prepared from 10′000 ppm DMSO stock solutions. After drying the leaf discs were infested with a thrips population of mixed ages. The samples were assessed for mortality 6 days after infestation.

Tetranychus urticae = Tetranychus urticae (two-spotted spider mite) bean leaf disc test; details: foliar, 192 h
Experimental: Tetranychus urticae (Two-Spotted Spider Mite):
Bean leaf discs on agar in 24-well microtiter plates were sprayed with aqueous test solutions prepared from 10′000 ppm DMSO stock solutions. After drying the leaf discs were infested with a mite population of mixed ages. The samples were assessed for mortality on mixed population (mobile stages) 8 days after infestation.

Myzus persicae = Myzus persicae (green peach aphid) sunflower leaf disc test; details: foliar, 144 h
Experimental: Myzus persicae (Green Peach Aphid):
Sunflower leaf discs were placed on agar in a 24-well microtiter plate and sprayed with test solutions at an application rate of 200 ppm. After drying, the leaf discs were infested with an aphid population of mixed ages. After an incubation period of 6 days after treatment, samples were checked for mortality. The following compounds gave at least 80% mortality of Myzus persicae: […]

CCOC1=NOC(NC(=O)c2ccc(C3=NO[C@@](c4cc(Cl)cc(Cl)c4)(C(F)(F)F)C3)cc2C)C1 (stereo partly drawn) [Compound A061, 4-[(5S)-5-(3,5-dichlorophenyl)-5-(trifluoromethyl)-4H-isoxazol-3-yl]-N-(3-ethoxy-4,5-dihydroisoxazol-5-yl)-2-methyl-benzamide]
≥ 80%: percent control (mortality, anti-feedant effect or growth inhibition) at 200 ppm (Spodoptera littoralis) | percent effect (mortality or growth inhibition) at 200 ppm (Plutella xylostella) | percent effect (mortality or growth inhibition) at 200 ppm (Diabrotica Balteata) | mortality at 200 ppm (Thrips tabaci) | mortality at 200 ppm (Tetranychus urticae) | mortality at 200 ppm (Myzus persicae)

Cc1cc(C2=NO[C@@](c3cc(Cl)c(F)c(Cl)c3)(C(F)(F)F)C2)ccc1C(=O)NC1CC(COC=O)=NO1 (stereo partly drawn) [Compound A089]
≥ 80%: percent control (mortality, anti-feedant effect or growth inhibition) at 200 ppm (Spodoptera littoralis) | percent effect (mortality or growth inhibition) at 200 ppm (Plutella xylostella) | percent effect (mortality or growth inhibition) at 200 ppm (Diabrotica Balteata) | mortality at 200 ppm (Thrips tabaci) | mortality at 200 ppm (Tetranychus urticae) | mortality at 200 ppm (Myzus persicae)

COC1=NO[C@H](NC(=O)c2ccc(C3=NO[C@@](c4cc(Cl)c(F)c(Cl)c4)(C(F)(F)F)C3)cc2C)C1 (single isomer, unassigned) [Compound A150]
≥ 80%: percent control (mortality, anti-feedant effect or growth inhibition) at 200 ppm (Spodoptera littoralis) | percent effect (mortality or growth inhibition) at 200 ppm (Plutella xylostella) | percent effect (mortality or growth inhibition) at 200 ppm (Diabrotica Balteata) | mortality at 200 ppm (Thrips tabaci) | mortality at 200 ppm (Tetranychus urticae) | mortality at 200 ppm (Myzus persicae)

CC1=NOC(N(C=O)C(=O)c2ccc(C3=NO[C@@](c4cc(Cl)c(Cl)c(Cl)c4)(C(F)(F)F)C3)cc2C)C1 (stereo partly drawn) [Compound A023, N-formyl-2-methyl-N-(3-methyl-4,5-dihydroisoxazol-5-yl)-4-[(5S)-5-(3,4,5-trichlorophenyl)-5-(trifluoromethyl)-4H-isoxazol-3-yl]benzamide]
≥ 80%: percent control (mortality, anti-feedant effect or growth inhibition) at 200 ppm (Spodoptera littoralis) | percent effect (mortality or growth inhibition) at 200 ppm (Plutella xylostella) | percent effect (mortality or growth inhibition) at 200 ppm (Diabrotica Balteata) | mortality at 200 ppm (Thrips tabaci) | mortality at 200 ppm (Tetranychus urticae) | mortality at 200 ppm (Myzus persicae)

Cc1cc(C2=NO[C@@](c3cc(Cl)c(Cl)c(Cl)c3)(C(F)(F)F)C2)ccc1C(=O)NC1CC(OCc2ccccn2)=NO1 (stereo partly drawn) [Compound A112, 2-methyl-N-[3-(2-pyridylmethoxy)-4,5-dihydroisoxazol-5-yl]-4-[(5S)-5-(3,4,5-trichlorophenyl)-5-(trifluoromethyl)-4H-isoxazol-3-yl]benzamide]
≥ 80%: percent control (mortality, anti-feedant effect or growth inhibition) at 200 ppm (Spodoptera littoralis) | percent effect (mortality or growth inhibition) at 200 ppm (Plutella xylostella) | percent effect (mortality or growth inhibition) at 200 ppm (Diabrotica Balteata) | mortality at 200 ppm (Thrips tabaci) | mortality at 200 ppm (Tetranychus urticae) | mortality at 200 ppm (Myzus persicae)

COC1=NOC(NC(=O)c2ccc(C3=NO[C@@](c4cc(Cl)c(F)c(Cl)c4)(C(F)(F)F)C3)cc2C)C1 (stereo partly drawn) [Compound A030, 4-[(5S)-5-(3,5-dichloro-4-fluoro-phenyl)-5-(trifluoromethyl)-4H-isoxazol-3-yl]-N-(3-methoxy-4,5-dihydroisoxazol-5-yl)-2-methyl-benzamide]
≥ 80%: percent control (mortality, anti-feedant effect or growth inhibition) at 200 ppm (Spodoptera littoralis) | percent effect (mortality or growth inhibition) at 200 ppm (Plutella xylostella) | percent effect (mortality or growth inhibition) at 200 ppm (Diabrotica Balteata) | mortality at 200 ppm (Thrips tabaci) | mortality at 200 ppm (Tetranychus urticae) | mortality at 200 ppm (Myzus persicae)

Cc1cc(C2=NO[C@@](c3cc(Cl)c(Cl)c(Cl)c3)(C(F)(F)F)C2)ccc1C(=O)NC1CC(OCC2(C)COC2)=NO1 (stereo partly drawn) [Compound A123, 2-methyl-N-[3-[(3-methyloxetan-3-yl)methoxy]-4,5-dihydroisoxazol-5-yl]-4-[(5S)-5-(3,4,5-trichlorophenyl)-5-(trifluoromethyl)-4H-isoxazol-3-yl]benzamide]
≥ 80%: percent control (mortality, anti-feedant effect or growth inhibition) at 200 ppm (Spodoptera littoralis) | percent effect (mortality or growth inhibition) at 200 ppm (Plutella xylostella) | percent effect (mortality or growth inhibition) at 200 ppm (Diabrotica Balteata) | mortality at 200 ppm (Thrips tabaci) | mortality at 200 ppm (Tetranychus urticae) | mortality at 200 ppm (Myzus persicae)

Cc1cc(C2=NO[C@@](c3cc(Cl)cc(C(F)(F)F)c3)(C(F)(F)F)C2)ccc1C(=O)NC1CC(Cl)=NO1 (stereo partly drawn) [Compound A016, N-(3-chloro-4,5-dihydroisoxazol-5-yl)-4-[(5S)-5-[3-chloro-5-(trifluoromethyl)phenyl]-5-(trifluoromethyl)-4H-isoxazol-3-yl]-2-methyl-benzamide]
≥ 80%: percent control (mortality, anti-feedant effect or growth inhibition) at 200 ppm (Spodoptera littoralis) | percent effect (mortality or growth inhibition) at 200 ppm (Plutella xylostella) | percent effect (mortality or growth inhibition) at 200 ppm (Diabrotica Balteata) | mortality at 200 ppm (Thrips tabaci) | mortality at 200 ppm (Tetranychus urticae) | mortality at 200 ppm (Myzus persicae)

Cc1cc(C2=NO[C@@](c3cc(Cl)c(F)c(Cl)c3)(C(F)(F)F)C2)ccc1C(=O)NC1CC(C=O)=NO1 (stereo partly drawn) [Compound A099]
≥ 80%: percent control (mortality, anti-feedant effect or growth inhibition) at 200 ppm (Spodoptera littoralis) | percent effect (mortality or growth inhibition) at 200 ppm (Plutella xylostella) | percent effect (mortality or growth inhibition) at 200 ppm (Diabrotica Balteata) | mortality at 200 ppm (Thrips tabaci) | mortality at 200 ppm (Tetranychus urticae) | mortality at 200 ppm (Myzus persicae)

COC1=NOC(NC(=O)c2ccc(C3=NO[C@@](c4cc(Cl)cc(C(F)(F)F)c4)(C(F)(F)F)C3)cc2C)C1 (stereo partly drawn) [Compound A042]
≥ 80%: percent control (mortality, anti-feedant effect or growth inhibition) at 200 ppm (Spodoptera littoralis) | percent effect (mortality or growth inhibition) at 200 ppm (Plutella xylostella) | percent effect (mortality or growth inhibition) at 200 ppm (Diabrotica Balteata) | mortality at 200 ppm (Thrips tabaci) | mortality at 200 ppm (Tetranychus urticae) | mortality at 200 ppm (Myzus persicae)

Cc1cc(C2=NO[C@@](c3cc(Cl)c(F)c(Cl)c3)(C(F)(F)F)C2)ccc1C(=O)NC1CC(Oc2ccc(Cl)cc2)=NO1 (stereo partly drawn) [Compound A108, N-[3-(4-chlorophenoxy)-4,5-dihydroisoxazol-5-yl]-4-[(5S)-5-(3,5-dichloro-4-fluoro-phenyl)-5-(trifluoromethyl)-4H-isoxazol-3-yl]-2-methyl-benzamide]
≥ 80%: percent control (mortality, anti-feedant effect or growth inhibition) at 200 ppm (Spodoptera littoralis) | percent effect (mortality or growth inhibition) at 200 ppm (Plutella xylostella) | percent effect (mortality or growth inhibition) at 200 ppm (Diabrotica Balteata) | mortality at 200 ppm (Thrips tabaci) | mortality at 200 ppm (Tetranychus urticae) | mortality at 200 ppm (Myzus persicae)

CC1=NOC(N(C=O)C(=O)c2ccc(C3=NO[C@@](c4cc(Cl)c(F)c(Cl)c4)(C(F)(F)F)C3)cc2Br)C1 (stereo partly drawn) [Compound A034, 2-bromo-4-[(5S)-5-(3,5-dichloro-4-fluoro-phenyl)-5-(trifluoromethyl)-4H-isoxazol-3-yl]-N-formyl-N-(3-methyl-4,5-dihydroisoxazol-5-yl)benzamide]
≥ 80%: percent control (mortality, anti-feedant effect or growth inhibition) at 200 ppm (Spodoptera littoralis) | percent effect (mortality or growth inhibition) at 200 ppm (Plutella xylostella) | percent effect (mortality or growth inhibition) at 200 ppm (Diabrotica Balteata) | mortality at 200 ppm (Thrips tabaci) | mortality at 200 ppm (Tetranychus urticae) | mortality at 200 ppm (Myzus persicae)

COC1=NOC(NC(=O)c2ccc(C3=NO[C@@](c4cc(Br)cc(C(F)(F)F)c4)(C(F)(F)F)C3)cc2C)C1 (stereo partly drawn) [Compound A044]
≥ 80%: percent control (mortality, anti-feedant effect or growth inhibition) at 200 ppm (Spodoptera littoralis; application rate 200 ppm, cotton leaf discs, L1 larvae, 3 days after infestation) | percent effect (mortality or growth inhibition) at 200 ppm (Plutella xylostella; application rate 200 ppm, artificial diet, L2 larvae, 5 days after infestation) | percent effect (mortality or growth inhibition) at 200 ppm (Diabrotica Balteata; application rate 200 ppm, maize sprouts, L2 larvae, 4 days after infestation) | mortality at 200 ppm (Thrips tabaci; application rate 200 ppm, sunflower leaf discs, population of mixed ages, 6 days after infestation, read-out: mortality) | mortality at 200 ppm (Tetranychus urticae; application rate 200 ppm, bean leaf discs, mixed population (mobile stages), 8 days after infestation, read-out: mortality) | mortality at 200 ppm (Myzus persicae; application rate 200 ppm, sunflower leaf discs, population of mixed ages, 6 days after treatment, read-out: mortality)
